Legend:
SXR = molecular target: T1, SXR (Homo sapiens, UniProt O75469); test: Microplate thermal shift assay (Thermofluor) of SXR with ligands, co-activator peptide SRC1-NR2 and co-repressor peptide NCoR-1; settings: for ΔΔTm SRC1-NR2 / ΔΔTm NcoR1-NR2 / ΔTm ligand: SXR 6 μM, ligand 50 μM; for ΔΔTm SRC1-NR2: co-activator peptide SRC1-NR2 100 μM; for ΔΔTm SRC1-NR2 / ΔΔTm NcoR1-NR2: change from the receptor-ligand ΔTm; for ΔΔTm NcoR1-NR2: co-repressor peptide NCoR-1 100 μM; for ΔTm ligand: average of four experiments; for Probability Agonist (statistical probability of agonist state): computed from affinities derived from ΔΔTm with co-regulator peptides (FIG. 3); for ΔTm at 100 µM: read-out: ΔΔTm NcoR1-NR2
T1 sequence (O75469 1-434): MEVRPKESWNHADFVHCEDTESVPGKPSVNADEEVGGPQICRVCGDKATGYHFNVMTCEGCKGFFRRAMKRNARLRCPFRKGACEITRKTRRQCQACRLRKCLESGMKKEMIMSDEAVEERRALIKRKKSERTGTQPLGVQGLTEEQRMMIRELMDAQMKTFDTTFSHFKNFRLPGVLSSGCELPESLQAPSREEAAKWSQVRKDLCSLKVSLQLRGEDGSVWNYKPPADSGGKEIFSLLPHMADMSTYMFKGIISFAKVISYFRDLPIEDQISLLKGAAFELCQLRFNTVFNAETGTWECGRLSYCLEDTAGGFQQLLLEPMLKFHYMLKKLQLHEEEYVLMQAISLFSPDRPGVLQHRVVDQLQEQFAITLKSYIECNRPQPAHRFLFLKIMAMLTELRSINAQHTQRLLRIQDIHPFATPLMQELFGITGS
Description: A 2 μL ligand solution at 2 times the final concentration was dispensed with a micropipette into a 384 well black wall Greiner plate. Then, 2 μL of the protein dye solution was dispensed on top of the ligand solution in the 384 well plate. The plates were spun to ensure mixing of the protein-dye and ligand solutions followed by layering of 1 μL of silicone oil to prevent evaporation during heating of the samples. […] The values for the co-regulators represent a change in Tm stabilization from the receptor-ligand ΔTm values.

ER-β [1] = molecular target: ER-β (Homo sapiens, UniProt Q92731); test: Microplate thermal shift assay (Thermofluor) of ER-β with ligands and co-regulators; type: binding; settings: for Observed ΔTm Stabilization, SRC3-NR2: co-activator peptide SRC3-NR2 100 μM; for Observed ΔTm Stabilization, NR2: change in Tm stabilization from the receptor-ligand ΔTm; for Observed ΔTm Stabilization, NR2 / Observed ΔTm Stabilization, SRC-3: head shifted, see doubts; for Observed ΔTm Stabilization, SRC-3: average of four experiments
Description: (§1) A 2 μM ligand solution at 2 times the final concentration was dispensed with a micropipette into a 384 well black wall Greiner plate. Then, 2 μL of the protein dye solution was dispensed on top of the ligand solution in the 384 well plate. The plates were spun to ensure mixing of the protein-dye and ligand solutions followed by layering of 1 μL of silicone oil to prevent evaporation during heating of the samples.

ER-α [2] = molecular target: T2, ER-α (Homo sapiens, UniProt P03372); test: Microplate thermal shift assay (Thermofluor) of ER-α with ligands and co-regulators; type: binding
T2 sequence (P03372 1-595): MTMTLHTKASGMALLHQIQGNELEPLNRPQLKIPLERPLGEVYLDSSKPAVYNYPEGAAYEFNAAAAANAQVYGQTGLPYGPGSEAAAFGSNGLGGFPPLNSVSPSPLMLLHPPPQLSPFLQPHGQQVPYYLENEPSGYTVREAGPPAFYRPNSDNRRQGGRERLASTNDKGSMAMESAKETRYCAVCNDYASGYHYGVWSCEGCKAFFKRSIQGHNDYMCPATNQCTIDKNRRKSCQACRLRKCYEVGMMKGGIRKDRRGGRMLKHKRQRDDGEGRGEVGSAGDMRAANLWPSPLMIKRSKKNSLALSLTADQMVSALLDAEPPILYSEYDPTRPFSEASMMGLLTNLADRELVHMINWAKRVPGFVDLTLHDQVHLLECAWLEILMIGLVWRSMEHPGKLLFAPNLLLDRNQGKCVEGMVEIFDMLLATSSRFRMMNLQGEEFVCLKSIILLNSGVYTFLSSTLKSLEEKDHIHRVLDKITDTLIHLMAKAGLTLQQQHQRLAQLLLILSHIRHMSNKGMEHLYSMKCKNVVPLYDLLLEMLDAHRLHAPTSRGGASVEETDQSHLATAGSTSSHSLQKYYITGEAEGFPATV
Description: as §1

ER-β [3] = molecular target: T3, ER-β (UniProt Q92731 256-505, limits assumed); test: Thermofluor thermal shift; ER-β 8 µM, no ligand; peptide 100 µM
T3 construct: also called estrogen receptor beta
Description: as §1

ER-β [4] = molecular target: T3, ER-β; test: Thermofluor thermal shift; ER-β 8 µM with estrone 20 µM; peptide 100 µM
Description: as §1

ER-α [5] = molecular target: T4, ER-α (UniProt P03372 297-554, limits assumed); test: Thermofluor thermal shift; ER-α 8 µM with 2-methoxy-E2 20 µM; peptide 100 µM
T4 construct: also called estrogen receptor alpha
T4 sequence (looked up): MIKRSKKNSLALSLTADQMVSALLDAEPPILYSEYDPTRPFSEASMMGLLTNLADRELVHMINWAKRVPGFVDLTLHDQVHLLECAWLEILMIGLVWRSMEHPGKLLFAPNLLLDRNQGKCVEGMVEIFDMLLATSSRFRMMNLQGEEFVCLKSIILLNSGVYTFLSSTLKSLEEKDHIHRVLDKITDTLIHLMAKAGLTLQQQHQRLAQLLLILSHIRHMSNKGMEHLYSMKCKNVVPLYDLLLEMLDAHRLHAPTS
Description: as §1

ER-α [6] = molecular target: T4, ER-α; test: Thermofluor thermal shift; ER-α 8 µM with 4-OH-tamoxifen 20 µM; peptide 100 µM
Description: as §1

ER-β [7] = molecular target: T3, ER-β; test: Thermofluor thermal shift; ER-β 8 µM with estradiol 20 µM; peptide 100 µM
Description: as §1

ER-β [8] = molecular target: T3, ER-β; test: Thermofluor thermal shift; ER-β 8 µM with 17-α-ethylene-E2 20 µM; peptide 100 µM
Description: as §1

ER-β [9] = molecular target: T3, ER-β; test: Thermofluor thermal shift; ER-β 8 µM with ICI-182780 20 µM; peptide 100 µM
Description: as §1

ER-α [10] = molecular target: T4, ER-α; test: Thermofluor thermal shift; ER-α 8 µM, no ligand; peptide 100 µM
Description: as §1

ER-β [11] = molecular target: T3, ER-β; test: Thermofluor thermal shift; ER-β 8 µM with 4-OH-tamoxifen 20 µM; peptide 100 µM
Description: as §1

ER-α [12] = molecular target: T4, ER-α; test: Thermofluor thermal shift; ER-α 8 µM with 17-α-ethylene-E2 20 µM; peptide 100 µM
Description: as §1

ER-α [13] = molecular target: T4, ER-α; test: Thermofluor thermal shift; ER-α 8 µM with estrone 20 µM; peptide 100 µM
Description: as §1

ER-α [14] = molecular target: T4, ER-α; test: Thermofluor thermal shift; ER-α 8 µM with tamoxifen 20 µM; peptide 100 µM
Description: as §1

ER-β [15] = molecular target: T3, ER-β; test: Thermofluor thermal shift; ER-β 8 µM with 2-methoxy-E2 20 µM; peptide 100 µM
Description: as §1

ER-α [16] = molecular target: T4, ER-α; test: Thermofluor thermal shift; ER-α 8 µM with estradiol 20 µM; peptide 100 µM
Description: as §1

ER-α [17] = molecular target: T4, ER-α; test: Thermofluor thermal shift; ER-α 8 µM with ICI-182780 20 µM; peptide 100 µM
Description: as §1

ER-β [18] = molecular target: T3, ER-β; test: Thermofluor thermal shift; ER-β 8 µM with tamoxifen 20 µM; peptide 100 µM
Description: as §1

[19] = ER-β 8 μM, ligand 20 μM, change from the receptor-ligand ΔTm

Chain of ER-β (Homo sapiens, UniProt Q92731) (Q92731 whole entry, species assumed): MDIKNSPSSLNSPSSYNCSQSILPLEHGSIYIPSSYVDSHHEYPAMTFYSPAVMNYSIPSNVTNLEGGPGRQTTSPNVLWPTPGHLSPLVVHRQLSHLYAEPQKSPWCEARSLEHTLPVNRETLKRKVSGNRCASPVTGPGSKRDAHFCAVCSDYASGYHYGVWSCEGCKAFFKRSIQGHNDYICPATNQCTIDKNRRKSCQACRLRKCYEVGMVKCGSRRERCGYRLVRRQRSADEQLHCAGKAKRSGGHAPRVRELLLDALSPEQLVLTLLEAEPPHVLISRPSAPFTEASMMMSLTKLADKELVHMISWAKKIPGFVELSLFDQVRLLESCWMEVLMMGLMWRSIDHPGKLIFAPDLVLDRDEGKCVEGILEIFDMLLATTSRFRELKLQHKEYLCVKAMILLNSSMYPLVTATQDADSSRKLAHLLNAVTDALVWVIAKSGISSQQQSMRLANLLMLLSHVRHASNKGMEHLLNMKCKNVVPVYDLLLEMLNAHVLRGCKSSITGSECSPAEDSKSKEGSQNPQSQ
T3 sequence (Q92731 256-505 limits assumed): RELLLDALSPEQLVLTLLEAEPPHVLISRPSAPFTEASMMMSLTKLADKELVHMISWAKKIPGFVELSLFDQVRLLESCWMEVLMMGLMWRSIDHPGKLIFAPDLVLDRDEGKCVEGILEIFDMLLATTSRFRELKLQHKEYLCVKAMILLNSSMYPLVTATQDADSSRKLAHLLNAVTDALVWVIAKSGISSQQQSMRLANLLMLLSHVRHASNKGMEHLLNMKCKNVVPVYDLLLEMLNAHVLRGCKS

CC(=O)[C@H]1CC[C@H]2[C@@H]3CCC4=CC(=O)CC[C@]4(C)[C@H]3[C@H](O)C[C@]12C [11-α-hydroxy-progesterone]
ΔΔTm SRC1-NR2 (SXR): 4.6
ΔΔTm NcoR1-NR2 (SXR): 1.0
ΔTm ligand (SXR): 6.3 °C
Probability Agonist (statistical probability of agonist state) (SXR): 0.96

CC(=O)[C@@]1(O)CC[C@H]2[C@@H]3CCC4=CC(=O)CC[C@]4(C)[C@H]3CC[C@@]21C [17-α-hydroxyprogesterone]
Probability Agonist (statistical probability of agonist state) (SXR): 0.47

C[C@]12CC[C@@H](O)C[C@@H]1CC[C@@H]1[C@@H]2CC[C@]2(C)C(=O)CC[C@@H]12 [Androsterone]
ΔΔTm SRC1-NR2 (SXR): 3.5
ΔTm ligand (SXR): 3.3 °C
Probability Agonist (statistical probability of agonist state) (SXR): 0.45
ΔTm at 100 µM (SXR): 3.8 °C

CCOC(=O)C(C)(C)Oc1ccc(Cl)cc1 [Clofibrate]
Kd (SXR): 23 µM
ΔΔTm SRC1-NR2 (SXR): 3.3
ΔTm ligand (SXR): 1.3 °C
Probability Agonist (statistical probability of agonist state) (SXR): 0.49
ΔTm at 100 µM (SXR): 3.4 °C

C[C@]12CCC(=O)C=C1CC[C@@H]1[C@@H]2C(=O)C[C@@]2(C)[C@H]1CC[C@]2(O)C(=O)CO [Cortisone]
ΔΔTm NcoR1-NR2 (SXR): 3.6
Probability Agonist (statistical probability of agonist state) (SXR): 0.37

C[C@]12CC[C@@H]3c4ccc(O)cc4CC[C@H]3[C@@H]1CC[C@@H]2O [Estradiol]
Observed ΔTm Stabilization, SRC3-NR2 (ER-β [1]; [19]): 3.5
Observed ΔTm Stabilization, NR2 (ER-β [1]; ER-β 8 μM, ligand 20 μM): 3.4
Kd (SXR): 8.7 µM
ΔΔTm SRC1-NR2 (SXR): 3.9
Probability Agonist (statistical probability of agonist state) (SXR): 0.76
ΔTm at 100 µM (SXR): 2.3 °C

C[C@]12CCC(=O)C=C1CC[C@@H]1[C@@H]2[C@@H](O)C[C@@]2(C)[C@H]1CC[C@]2(O)C(=O)CO [Hydrocortisone]
Kd (SXR): 17 µM
ΔΔTm SRC1-NR2 (SXR): 3.3
ΔTm ligand (SXR): 1.6 °C
Probability Agonist (statistical probability of agonist state) (SXR): 0.44
ΔTm at 100 µM (SXR): 3.7 °C

C[C@]12CC[C@@H]3c4ccc(O)cc4C[C@@H](CCCCCCCCC[S+]([O-])CCCC(F)(F)C(F)(F)F)[C@H]3[C@@H]1CC[C@@H]2O (some centres unmarked) [ICI-182780]
ΔTm at 100 µM (ER-β [1]; ER-β 8 μM, ligand 20 μM, co-repressor peptide NCoR-1 100 μM, change from the receptor-ligand ΔTm, read-out: Observed ΔTm Stabilization, NCoR1-NR1): 0.3 °C
Observed ΔTm Stabilization, SRC-3 (ER-β [1]; ER-β 8 μM, ligand 20 μM): 16.7
Observed ΔTm Stabilization, NR2 (ER-β [1]; ER-β 8 μM, ligand 20 μM): 0.4
Recruitment of co-activators (additional stabilization in the presence of co-activator protein/peptide) (ER-β [1]; result in words): no ability to recruit co-activators
Observed ΔTm Stabilization, SRC3-NR2 (ER-α [2]; ER-α 8 μM, ligand 20 μM, co-activator peptide SRC3-NR2 100 μM, change from the receptor-ligand ΔTm): 0.2
ΔTm at 100 µM (ER-α [2]; ER-α 8 μM, ligand 20 μM, co-repressor peptide NCoR-1 100 μM, change from the receptor-ligand ΔTm, read-out: Observed ΔTm Stabilization, NCoR1-NR1): -0.6 °C
Observed ΔTm Stabilization, NR2 (ER-α [2]; ER-α 8 μM, ligand 20 μM, change in Tm stabilization from the receptor-ligand ΔTm, head shifted, see doubts): 0.2
Recruitment of co-activators (additional stabilization in the presence of co-activator protein/peptide) (ER-α [2]; result in words): no ability to recruit co-activators

COc1cc2c(cc1O)CC[C@@H]1[C@@H]2CC[C@]2(C)[C@@H](O)CC[C@@H]12 [Ligand 2-methoxy-E2, 2-methoxy-E2]
Observed ΔTm Stabilization, SRC3-NR2 (ER-β [1]; [19]): 4.4
Observed ΔTm Stabilization, NCoR1-NR1 (ER-β [1]; ER-β 8 μM, ligand 20 μM, co-repressor peptide NCoR-1 100 μM, change from the receptor-ligand ΔTm): −0.7
Observed ΔTm Stabilization, SRC-3 (ER-β [1]; ER-β 8 μM, ligand 20 μM): 2.9
Observed ΔTm Stabilization, NR2 (ER-β [1]; ER-β 8 μM, ligand 20 μM): 4.4
Observed ΔTm Stabilization, SRC-3 (ER-α [2]; ER-α 8 μM, ligand 20 μM, average of four experiments, head shifted, see doubts): 3.5

C[C@H](CCC(=O)O)[C@H]1CC[C@H]2[C@@H]3CC[C@@H]4C[C@H](O)CC[C@]4(C)[C@H]3CC[C@]12C [Lithocholic acid]
ΔΔTm SRC1-NR2 (SXR): 2.9
ΔTm ligand (SXR): 2.4 °C
ΔTm at 100 µM (SXR): 1.4 °C

MHGSLLQEKHRILHKLLQNGNSP (peptide, UniProt Q9Y6Q9 673-695, looked up, Peptide fragment of SRC-3) [co-activator peptide SRC3-NR2]
change in Tm stabilization from the receptor-ligand ΔTm (ER-β [3]): 0.9
change in Tm stabilization from the receptor-ligand ΔTm (ER-β [4]): 3.7
change in Tm stabilization from the receptor-ligand ΔTm (ER-α [5]): 4.3
change in Tm stabilization from the receptor-ligand ΔTm (ER-α [6]): 0.7
change in Tm stabilization from the receptor-ligand ΔTm (ER-β [7]): 3.5
change in Tm stabilization from the receptor-ligand ΔTm (ER-β [8]): 2.6
change in Tm stabilization from the receptor-ligand ΔTm (ER-β [9]): 0.6
change in Tm stabilization from the receptor-ligand ΔTm (ER-α [10]): 0.9
change in Tm stabilization from the receptor-ligand ΔTm (ER-β [11]): 0.8
change in Tm stabilization from the receptor-ligand ΔTm (ER-α [12]): 3.9
change in Tm stabilization from the receptor-ligand ΔTm (ER-α [13]): 2.3
change in Tm stabilization from the receptor-ligand ΔTm (ER-α [14]): 0
change in Tm stabilization from the receptor-ligand ΔTm (ER-β [15]): 4.4
change in Tm stabilization from the receptor-ligand ΔTm (ER-α [16]): 4.3
change in Tm stabilization from the receptor-ligand ΔTm (ER-α [17]): 0.2
change in Tm stabilization from the receptor-ligand ΔTm (ER-β [18]): 0.4
